According to PMC3303804, “Inflammation-Associated Nitrotyrosination Affects TCR Recognition through Reduced Stability and Alteration of the Molecular Surface of the MHC Complex” (PLoS ONE, 2012):
“Also recorded” adds a separate entry of the source.

Assays:
H-2K^b [1] = molecular target: T1, H-2K^b (Mus musculus, UniProt P01901); test: Peptide-MHC binding affinity assay, stabilization of H-2K^b on TAP-deficient RMA-S cells; details: 5×10^5, peptide overnight (12 hours) 26°C in serum free AIM-V, then 37°C 60 min without peptide, anti-H-2K^b AF6-88.5, flow cytometry, MFI relative to no peptide, repeated three times
T1 sequence (P01901 whole entry, looked up): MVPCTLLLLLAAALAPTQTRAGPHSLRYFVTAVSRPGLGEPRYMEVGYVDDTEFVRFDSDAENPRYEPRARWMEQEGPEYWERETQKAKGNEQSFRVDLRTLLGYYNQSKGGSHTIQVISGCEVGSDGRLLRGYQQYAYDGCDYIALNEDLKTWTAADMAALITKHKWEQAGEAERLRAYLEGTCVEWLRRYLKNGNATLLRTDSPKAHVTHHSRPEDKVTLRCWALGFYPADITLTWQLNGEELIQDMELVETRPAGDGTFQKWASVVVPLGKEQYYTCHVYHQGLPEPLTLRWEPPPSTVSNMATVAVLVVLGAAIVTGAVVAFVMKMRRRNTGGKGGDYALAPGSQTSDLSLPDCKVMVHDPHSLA

H-2K^b [2] = molecular target: T1, H-2K^b; test: MHC complex stability, circular dichroism thermal denaturation; format: binding; details: for Tm (melting temperature): soluble H-2K^b/peptide complex, CD 218 nm, 30-75°C, 48°C/hour, 20 mM K2HPO4/KH2PO4 pH 7.5, protein 0.15 to 0.25 mg/ml, Tm at 50% denaturation
H-2K^b [3] = molecular target: T1, H-2K^b; test: MHC complex stability, Thermofluor (differential scanning fluorimetry); format: binding; details: H-2K^b/peptide complex 0.25 mg/mL, 10 mM Na^+ HEPES pH 7.3, 150 mM NaCl, SYPRO Orange, 20 to 95°C at 1°C/min; maximum of first derivative; average of three distinct melting curves
Description: Differential scanning fluorimetry experiments were carried out using an iQ5 real-time PCR detection system (Bio-Rad). 96-well PCR plates were filled with 23 µl of MHC solution (0.25 mg/mL) in 10 mM Na^+ HEPES buffer (pH 7.3), 150 mM NaCl per well. Finally, the fluorophore (2 µl of 125× SYPRO Orange (Sigma S5692)) was added to each well and the plate was sealed with optical sealing tape (Bio-Rad). An iQ5 Real-Time PCR Detection System, calibrated with External Well factor solution was used to monitor the changes in fluorescence intensity of the fluorophore. The temperature of the samples was changed from 20 to 95°C at a heating rate of 1°C/min and the fluorescence was recorded every 0.2°C. The melting temperature (Tm) of each melting curve was calculated as the maximum of the first derivative of the curve. The average Tm value of each protein was determined from three distinct melting curves.

T cell hybridoma 24H1 = tested on: T cell hybridoma 24H1; set-up: method as in PMID 18424715; details: cited from earlier work; for recognition by T cell hybridoma 24H1: H-2K^b/peptide or H-2K^b+ target cells coated with peptide
T cell hybridoma 4C8 = details: H-2D^b context; 4C8 is H-2D^b/NY-gp33-specific; cited from earlier work
Description: A significant amount of the overall CD8^+ T cell response to LCMV is dominated by very few viral epitopes, comprising the H-2D^b-and H-2K^b- restricted peptide gp33–41 (hereafter referred to as gp33; […]) and the H-2K^b-restricted peptide gp34–41 (gp34; […]), [39]. Both gp33 and gp34 contain a single tyrosine residue at positions ...

[4] = average of at least two independent measurements, value ± spread printed in Figure 4B
[5] = average of at least two measurements from two independent refolding assays

| Substance | binding affinity to H-2K^b (cell surface stabilization) (H-2K^b [1]) | capacity to stabilize H-2K^b complexes (H-2K^b [2]; CD thermal denaturation, compared to gp34) | decrease in Tm of H-2K^b/NY-gp34 versus H-2K^b/gp34 (H-2K^b [2]; CD, pH 7.5, lower than for H-2K^b/gp34 (nearly)) [°C] | Tm (melting temperature) (H-2K^b [2]; [4]) | Tm (melting temperature) (H-2K^b [2]; [5]) [°C] | Tm (melting temperature) (H-2K^b [3]) | relative level of recognition by 24H1, NY-gp34 versus NY-gp33 (T cell hybridoma 24H1; H-2K^b context) | recognition by T cell hybridoma 24H1 (T cell hybridoma 24H1) | recognition by T cell hybridoma 4C8 (T cell hybridoma 4C8) |
| --- | --- | --- | --- | --- | --- | --- | --- | --- | --- |
| AV-p3NY-NFATM [NY-gp34, nitrotyrosinated gp34, AV-p3NY-NFATM] | significantly reduced binding affinity; also recorded: significantly reduced when compared to gp33 and gp34 | considerably reducing the stability; also recorded: significantly reduced when compared to gp34; also recorded: significantly reduced capacity | ~10 | 47.3 ± 0.1 | 47.3 | 44.5±0.2 | to a higher level when compared to H-2K^b/NY-gp33 | recognized; also recorded: responded to stimulation | – |
| AVYNFATM [gp34] | – | – | – | 56.7 ± 0.1 | 56.7 | 54.4±0.1 | – | did not recognize | – |
| KAVYNFATM [gp33] | – | – | – | – | – | – | – | did not recognize | did not recognize |
